Data reported in patent US20260224589A1 (priority 2023, published 2026).
Where two headings read alike, the source gives them in different places.

Assays:
[1] = system: AsPC-1 cells; assay: phospho-ERK HTRF assay in AsPC-1 cells, 4 h treatment; format: cell-based; conditions: Homo sapiens, ASPC1
[2] = system: SW-620; assay: phospho-ERK HTRF assay in SW-620 cells, 4 h treatment; format: cell-based; conditions: Homo sapiens, Table 3, read-out: pERK Inhibition SW-620 IC50
[3] = AsPC-1, 4h, Table 1b, read-out: PERK IC50 (AsPC-1, 4h)
[4] = AsPC-1, 4H, Table 1a class column, read-out: pERK IC50 activity range (*)
[5] = AsPC-1, 4H, Table 1a, read-out: PERK IC50 (AsPC-1, 4H)

## CN(C)C(=O)c1nn2c(c1Cl)CN(c1nc(OC[C@@]34CCCN3C[C@H](F)C4)nc3c1CO[C@H](c1c(C(F)(F)F)ccc(N)c1F)C3)CCC2 (single isomer, unassigned) [Example 1]
[1]; Table 3, read-out: pERK Inhibition AsPC-1 IC50
  IC50: 12.8 nM
[2]
  IC50: 14.4 nM

## CC#Cc1cc(N)cc([C@@H]2Cc3nc(OC[C@@]45CCCN4C/C(=C\F)C5)nc(N4CCCn5nc(C(=O)N(C)C)c(Cl)c5C4)c3CO2)c1C(F)(F)F [compound 427]
[1]; [3]
  IC50: < 10 nM

## CON(C)C(=O)c1nn2c(c1Cl)CN(c1nc(OC[C@@]34CCCN3C[C@H](F)C4)nc3c1CO[C@H](c1cc(N)cc(Cl)c1C(F)(F)F)C3)CCC2 [compound 448]
[1]; [3]
  IC50: < 10 nM

## CN(C)C(=O)c1nn2c(c1Cl)CN(c1nc(OC[C@@]34CCCN3C[C@H](F)C4)nc3c1COC(c1cc(N)cc(F)c1C(F)(F)F)C3)CCC2 (stereo partly shown) [compound 237]
[1]; [4]
  IC50: 10 to 30 nM
[1]; [5]
  IC50: 20.4 nM

## CN(C)C(=O)c1nn2c(c1Cl)CN(c1nc(OC[C@@]34CCCN3C[C@H](F)C4)nc3c1CO[C@@H](c1c(F)c(N)cc(F)c1C(F)(F)F)C3)CCC2 [214b]
[1]; [4]
  IC50: > 500 nM
[1]; [5]
  IC50: 1550 nM

## CN(C)C(=O)c1nn2c(c1Cl)CN(c1nc(OC[C@@]34CCCN3CC(=C(F)F)C4)nc3c1COC(c1cc(N)cc(Cl)c1C(F)(F)F)C3)CCC2 (stereo partly shown) [compound 245]
[1]; [3]
  IC50: < 10 nM

## Cc1cc(N)cc(C2Cc3nc(OC[C@@]45CCCN4CC(=C(F)F)C5)nc(N4CCCn5nc(C(=O)N(C)C)c(Cl)c5C4)c3CO2)c1C(F)(F)F (stereo partly shown) [compound 241]
[1]; [4]
  IC50: 31 to 100 nM
[1]; [5]
  IC50: 58.9 nM

## COc1c(C(=O)N(C)C)nn2c1CN(c1nc(OC[C@@]34CCCN3C[C@H](F)C4)nc3c1COC(c1c(F)c(N)cc(Cl)c1C(F)(F)F)C3)CCC2 (stereo partly shown) [compound 249]
[1]; [4]
  IC50: 101 to 500 nM
[1]; [5]
  IC50: 113 nM

## CN(C)C(=O)c1nn2c(c1Cl)CN(c1nc(OC[C@@]34CCCN3C[C@H](F)C4)nc3c1COC(c1cc(N)ccc1C(F)(F)F)C3)CCC2 (stereo in doubt) [230a, 5-((S)-7-(5-amino-2-(trifluoromethyl)phenyl)-2-(((2R,7aS)-2-fluorotetrahydro-1H-pyrrolizin-7a(5H)-yl)methoxy)-7,8-dihydro-5H-pyrano[4,3-d]pyrimidin-4-yl)-3-chloro-N,N-dimethyl-5,6,7,8-tetrahydro-4H-pyrazolo[1,5-a][1,4]diazepine-2-carboxamide]
[1]; [4]
  IC50: > 500 nM
[1]; [5]
  IC50: > 10000 nM

## CN(C)C(=O)c1nn2c(c1Cl)CN(c1nc(OC[C@@]34CCCN3C/C(=C\F)C4)nc3c1CO[C@H](c1cc(N)cc(Cl)c1C(F)(F)F)C3)CCC2 [compound 235, 5-((S)-7-(5-amino-3-chloro-2-(trifluoromethyl)phenyl)-2-(((S,Z)-2-(fluoromethylene)tetrahydro-1H-pyrrolizin-7a(5H)-yl)methoxy)-7,8-dihydro-5H-pyrano[4,3-d]pyrimidin-4-yl)-3-chloro-N,N-dimethyl-5,6,7,8-tetrahydro-4H-pyrazolo[1,5-a][1,4]diazepine-2-carboxamide]
[1]; [3]
  IC50: < 10 nM

## CN(C)C(=O)c1nn2c(c1Cl)CN(c1nc(OC[C@@]34CCCN3C[C@H](F)C4)nc3c1COC(c1cc(N)ccc1C(F)(F)F)C3)CCC2 (stereo partly drawn) [compound 230, 5-(7-(5-amino-2-(trifluoromethyl)phenyl)-2-(((2R,7aS)-2-fluorotetrahydro-1H-pyrrolizin-7a(5H)-yl)methoxy)-7,8-dihydro-5H-pyrano[4,3-d]pyrimidin-4-yl)-3-chloro-N,N-dimethyl-5,6,7,8-tetrahydro-4H-pyrazolo[1,5-a][1,4]diazepine-2-carboxamide]
[1]; [4]
  IC50: 31 to 100 nM
[1]; [5]
  IC50: 37 nM

## CS(=O)(=O)c1nn2c(c1Cl)CN(c1nc(OC[C@@]34CCCN3C[C@H](F)C4)nc3c1CO[C@@H](c1c(C(F)(F)F)ccc(N)c1F)C3)CCC2 [211b]
[1]; [4]
  IC50: > 500 nM
[1]; [5]
  IC50: > 10000 nM

## CN(C)C(=N)c1nn2c(c1Cl)CN(c1nc(OC[C@@]34CCCN3C[C@H](F)C4)nc3c1CO[C@H](c1c(C(F)(F)F)ccc(N)c1F)C3)CCC2 [compound 221]
[1]; [4]
  IC50: > 500 nM
[1]; [5]
  IC50: > 10000 nM

## Cc1c(C(=O)N(C)C)nn2c1CN(c1nc(OC[C@@]34CCCN3C[C@H](F)C4)nc3c1CO[C@H](c1c(F)c(N)cc(Cl)c1C(F)(F)F)C3)CCC2 [compound 441]
[1]; [3]
  IC50: < 10 nM

## Nc1ccc(C(F)(F)F)c(C2Cc3nc(OC[C@@]45CCCN4C[C@H](F)C5)nc(N4CCNC5CS(=O)(=O)C[C@H]54)c3CO2)c1F (stereo partly shown) [compound 207]
[1]; [4]
  IC50: > 500 nM
[1]; [5]
  IC50: > 10000 nM

## CC#Cc1cc(N)cc([C@@H]2Cc3nc(OC[C@@]45CCCN4C[C@H](F)C5)nc(N4CCCn5nc(C(=O)N(C)C)cc5C4)c3CO2)c1C(F)(F)F [compound 408]
[1]; [4]
  IC50: 10 to 30 nM

## CN(C)C(=O)n1nc2c(c1Cl)CN(c1nc(OC[C@@]34CCCN3C[C@H](F)C4)nc3c1COC(c1c(C(F)(F)F)ccc(N)c1F)C3)CCC2 (stereo partly shown) [compound 226]
[1]; [4]
  IC50: > 500 nM
[1]; [5]
  IC50: 943 nM
